The source made the active and inactive calls. The rule behind the calls is not given here.
Key:
[1] = target: Mitogen-activated protein kinase 11 (Homo sapiens) (UniProt Q15759); test: Inhibition of human MAPK11 at 1 uM using MBP as substrate in presence of [gamma33P]-ATP by HotSpot assay relative to control
[2] = target: High affinity nerve growth factor receptor (Homo sapiens) (UniProt P04629); test: Inhibition of human NTRK1 at 1 uM using poly (Glu, Tyr)4:1 as substrate in presence of [gamma33P]-ATP by HotSpot assay relative to control
[3] = target: Serine/threonine-protein kinase PAK 5 (Homo sapiens) (UniProt Q9P286); test: Inhibition of human PAK5 at 1 uM using RRRLSFAEPG as substrate in presence of [gamma33P]-ATP by HotSpot assay relative to control
[4] = target: Serine/threonine-protein kinase 4 (Homo sapiens, UniProt Q13043); test: Inhibition of human STK4 using KKSRGDYMTMQIG as substrate in presence of [gamma33P]-ATP by HotSpot assay
[5] = target: Mitogen-activated protein kinase 13 (Homo sapiens) (UniProt O15264); test: Inhibition of human MAPK13 at 1 uM using MBP as substrate in presence of [gamma33P]-ATP by HotSpot assay relative to control
[6] = target: Mitogen-activated protein kinase kinase kinase 7 (Homo sapiens) (UniProt O43318); test: Inhibition of human MAP3K7 at 1 uM using casein as substrate in presence of [gamma33P]-ATP by HotSpot assay relative to control
[7] = target: Platelet-derived growth factor receptor beta (Homo sapiens) (UniProt P09619); test: Inhibition of human PDGFRbeta at 1 uM using poly (Glu, Tyr)4:1 as substrate in presence of [gamma33P]-ATP by HotSpot assay relative to control
[8] = target: Tyrosine-protein kinase Lyn (Homo sapiens, UniProt P07948); test: Inhibition of human LYNB at 1 uM using poly (Glu, Tyr)4:1 as substrate in presence of [gamma33P]-ATP by HotSpot assay relative to control
[9] = Average plasma concentration in CB-17/SCID mouse at 50 mg/kg administered once a day for 4 days by LC-MS/MS analysis; type: ADME, organism-based; settings: in vivo, 96 h, time 4 day
KARPAS-299 = test: Antitumor activity against ALK positive human KARPAS-299 cells xenografted in SCID beige mouse assessed as inhibition of tumor growth administered orally once daily for 14 days; type: functional, cell-based; settings: dose 10-50 mg/kg, route po, time 14.0 day
[10] = target: Tyrosine-protein kinase HCK (Homo sapiens, UniProt P08631); test: Inhibition of human HCK using KVEKIGEGTYGVVYK as substrate in presence of [gamma33P]-ATP by HotSpot assay
[11] = target: Serine/threonine-protein kinase PLK1 (Homo sapiens, UniProt P53350); test: Inhibition of human PLK1 using casein as substrate in presence of [gamma33P]-ATP by HotSpot assay
[12] = target: Tyrosine-protein kinase Blk (Homo sapiens, UniProt P51451); test: Inhibition of human BLK using poly (Glu, Tyr)4:1 as substrate in presence of [gamma33P]-ATP by HotSpot assay
[13] = system: EML4-ALK (Homo sapiens), Q9UM73+Q9HC35 [S1206F]; settings: BaF3, dose 500.0 nmol/L, time 3-5 weeks
[14] = system: EML4-ALK (Homo sapiens), Q9UM73+Q9HC35 [F1174V]; settings: BaF3, dose 200.0 nmol/L, time 3-5 weeks
[15] = system: EML4-ALK (Homo sapiens), Q9UM73+Q9HC35 [I1171N]; settings: BaF3, dose 750.0 nmol/L, time 3-5 weeks
[16] = target: Fibroblast growth factor receptor 2 (Homo sapiens, UniProt P21802); test: Inhibition of human FGFR2 using poly (Glu, Tyr)4:1 as substrate in presence of [gamma33P]-ATP by HotSpot assay
[17] = target: Homeodomain-interacting protein kinase 4 (Homo sapiens) (UniProt Q8NE63); test: Inhibition of human HIPK4 at 1 uM using MBP as substrate in presence of [gamma33P]-ATP by HotSpot assay relative to control
[18] = target: Homeodomain-interacting protein kinase 2 (Homo sapiens) (UniProt Q9H2X6); test: Inhibition of human HIPK2 at 1 uM using MBP as substrate in presence of [gamma33P]-ATP by HotSpot assay relative to control
Ephrin type-B receptor 1 = Ephrin type-B receptor 1 (Homo sapiens, UniProt P54762); test: Inhibition of human EPHB1 using poly (Glu, Tyr)4:1 as substrate in presence of [gamma33P]-ATP by HotSpot assay
Homo sapiens = species: Homo sapiens; test: Inhibition of human CDK2/CyclinA at 1 uM using RB protein as substrate in presence of [gamma33P]-ATP by HotSpot assay relative to control
[19] = target: Serine/threonine-protein kinase Nek1 (Homo sapiens) (UniProt Q96PY6); test: Inhibition of human NEK1 at 1 uM using MBP as substrate in presence of [gamma33P]-ATP by HotSpot assay relative to control
[20] = target: MAP kinase-interacting serine/threonine-protein kinase 1 (Homo sapiens, UniProt Q9BUB5, T385D); test: Inhibition of human MNK1 T385D mutant using MBP as substrate in presence of [gamma33P]-ATP by HotSpot assay
[21] = system: EML4-ALK (Homo sapiens), Q9UM73+Q9HC35 [L1152P]; settings: BaF3, dose 500.0 nmol/L, time 3-5 weeks
[22] = target: Ribosomal protein S6 kinase alpha-2 (Homo sapiens, UniProt Q15349); test: Inhibition of human RPS6kA2 using KKLNRTLSVA as substrate in presence of [gamma33P]-ATP by HotSpot assay
[23] = target: Casein kinase I isoform gamma-2 (Homo sapiens) (UniProt P78368); test: Inhibition of human CSNK1G2 at 1 uM using KRRRAL[pS]VASLPGL as substrate in presence of [gamma33P]-ATP by HotSpot assay relative to control
[24] = target: Myotonin-protein kinase (Homo sapiens) (UniProt Q09013); test: Inhibition of human DMPK at 1 uM using KKRNRRLSVA as substrate in presence of [gamma33P]-ATP by HotSpot assay relative to control
Angiopoietin-1 receptor = Angiopoietin-1 receptor (Homo sapiens, UniProt Q02763); test: Inhibition of human TEK using poly (Glu, Tyr)4:1 as substrate in presence of [gamma33P]-ATP by HotSpot assay
[25] = target: Protein-tyrosine kinase 2-beta (Homo sapiens, UniProt Q14289); test: Inhibition of human PTK2B using poly (Glu, Tyr)4:1 as substrate in presence of [gamma33P]-ATP by HotSpot assay

Ephrin type-B receptor 1, sequence (P54762 whole entry): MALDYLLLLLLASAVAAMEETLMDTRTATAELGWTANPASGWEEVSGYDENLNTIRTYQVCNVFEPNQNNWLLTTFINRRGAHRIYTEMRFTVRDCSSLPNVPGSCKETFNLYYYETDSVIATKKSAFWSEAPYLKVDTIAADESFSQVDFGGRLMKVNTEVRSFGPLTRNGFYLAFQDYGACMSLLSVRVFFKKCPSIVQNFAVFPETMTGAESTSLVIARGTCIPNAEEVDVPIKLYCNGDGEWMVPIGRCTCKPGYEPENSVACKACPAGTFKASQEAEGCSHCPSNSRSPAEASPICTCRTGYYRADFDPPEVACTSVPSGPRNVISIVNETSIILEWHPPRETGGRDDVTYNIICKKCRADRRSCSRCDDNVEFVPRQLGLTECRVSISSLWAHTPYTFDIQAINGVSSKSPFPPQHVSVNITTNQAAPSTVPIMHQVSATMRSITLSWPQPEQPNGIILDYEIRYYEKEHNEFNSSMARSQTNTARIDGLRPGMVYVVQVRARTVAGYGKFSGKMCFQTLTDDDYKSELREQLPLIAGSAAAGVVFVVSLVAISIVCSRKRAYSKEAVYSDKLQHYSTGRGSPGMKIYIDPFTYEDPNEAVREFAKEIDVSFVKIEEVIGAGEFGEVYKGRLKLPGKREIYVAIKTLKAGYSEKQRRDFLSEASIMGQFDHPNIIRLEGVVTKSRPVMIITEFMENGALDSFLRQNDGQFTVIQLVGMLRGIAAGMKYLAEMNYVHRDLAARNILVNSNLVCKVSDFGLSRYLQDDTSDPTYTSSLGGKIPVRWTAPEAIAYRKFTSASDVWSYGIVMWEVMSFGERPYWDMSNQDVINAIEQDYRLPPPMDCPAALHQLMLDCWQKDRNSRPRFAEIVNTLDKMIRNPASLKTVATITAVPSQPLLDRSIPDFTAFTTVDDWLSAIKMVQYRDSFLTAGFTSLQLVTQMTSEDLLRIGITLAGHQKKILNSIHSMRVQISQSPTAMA
Homeodomain-interacting protein kinase 4 (Homo sapiens), sequence (Q8NE63 whole entry): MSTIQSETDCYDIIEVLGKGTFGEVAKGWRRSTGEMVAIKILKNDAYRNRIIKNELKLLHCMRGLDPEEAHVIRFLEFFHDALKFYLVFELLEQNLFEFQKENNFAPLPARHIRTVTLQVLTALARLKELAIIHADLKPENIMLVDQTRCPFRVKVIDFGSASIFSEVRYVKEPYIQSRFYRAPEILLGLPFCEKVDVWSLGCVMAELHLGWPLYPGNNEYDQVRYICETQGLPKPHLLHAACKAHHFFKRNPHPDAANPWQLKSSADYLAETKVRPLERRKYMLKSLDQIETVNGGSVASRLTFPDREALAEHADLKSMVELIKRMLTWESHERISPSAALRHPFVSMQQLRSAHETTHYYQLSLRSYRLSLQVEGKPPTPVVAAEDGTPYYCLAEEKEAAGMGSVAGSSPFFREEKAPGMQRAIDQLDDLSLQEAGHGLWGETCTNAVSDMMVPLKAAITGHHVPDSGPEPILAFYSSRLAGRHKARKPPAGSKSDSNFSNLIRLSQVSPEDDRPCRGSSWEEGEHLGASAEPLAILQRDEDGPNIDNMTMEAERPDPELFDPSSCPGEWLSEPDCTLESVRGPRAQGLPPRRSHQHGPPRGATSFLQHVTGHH
High affinity nerve growth factor receptor (Homo sapiens), sequence (P04629 33-796 limits assumed): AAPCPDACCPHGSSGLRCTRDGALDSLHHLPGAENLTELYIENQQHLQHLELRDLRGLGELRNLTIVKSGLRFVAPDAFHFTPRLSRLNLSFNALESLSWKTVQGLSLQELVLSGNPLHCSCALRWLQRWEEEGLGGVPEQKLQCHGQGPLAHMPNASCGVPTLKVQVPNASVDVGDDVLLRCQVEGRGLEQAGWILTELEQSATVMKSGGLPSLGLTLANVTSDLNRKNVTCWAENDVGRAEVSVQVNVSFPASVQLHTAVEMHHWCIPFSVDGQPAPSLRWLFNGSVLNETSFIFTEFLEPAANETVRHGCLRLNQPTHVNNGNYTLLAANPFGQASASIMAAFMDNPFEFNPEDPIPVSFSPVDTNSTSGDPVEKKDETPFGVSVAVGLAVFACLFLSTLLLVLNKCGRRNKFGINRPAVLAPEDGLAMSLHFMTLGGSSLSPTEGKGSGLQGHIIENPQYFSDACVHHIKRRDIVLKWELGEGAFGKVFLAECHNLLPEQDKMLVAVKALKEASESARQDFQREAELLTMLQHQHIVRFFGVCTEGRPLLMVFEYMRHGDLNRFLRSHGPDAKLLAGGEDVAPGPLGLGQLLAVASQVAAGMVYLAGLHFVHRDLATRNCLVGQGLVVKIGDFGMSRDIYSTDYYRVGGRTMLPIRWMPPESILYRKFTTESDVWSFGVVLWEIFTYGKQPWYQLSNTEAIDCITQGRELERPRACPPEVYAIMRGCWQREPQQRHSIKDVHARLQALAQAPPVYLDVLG
Serine/threonine-protein kinase PLK1, sequence (P53350 whole entry): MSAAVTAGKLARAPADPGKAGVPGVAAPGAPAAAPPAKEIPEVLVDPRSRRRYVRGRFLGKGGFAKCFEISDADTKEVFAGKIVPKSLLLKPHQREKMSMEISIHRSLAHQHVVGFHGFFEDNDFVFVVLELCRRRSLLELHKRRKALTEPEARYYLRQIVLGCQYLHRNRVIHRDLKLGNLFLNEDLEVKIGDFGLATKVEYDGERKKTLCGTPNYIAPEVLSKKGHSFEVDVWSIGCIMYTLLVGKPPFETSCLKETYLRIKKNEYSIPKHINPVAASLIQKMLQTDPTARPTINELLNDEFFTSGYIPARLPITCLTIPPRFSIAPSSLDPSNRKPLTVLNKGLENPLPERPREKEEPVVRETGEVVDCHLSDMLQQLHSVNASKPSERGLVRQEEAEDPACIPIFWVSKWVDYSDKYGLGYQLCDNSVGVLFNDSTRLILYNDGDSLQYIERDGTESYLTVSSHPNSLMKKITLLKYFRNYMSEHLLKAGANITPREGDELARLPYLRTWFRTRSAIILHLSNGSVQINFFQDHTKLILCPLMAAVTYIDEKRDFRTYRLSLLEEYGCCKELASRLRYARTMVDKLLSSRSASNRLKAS
Mitogen-activated protein kinase kinase kinase 7 (Homo sapiens), sequence (O43318 whole entry): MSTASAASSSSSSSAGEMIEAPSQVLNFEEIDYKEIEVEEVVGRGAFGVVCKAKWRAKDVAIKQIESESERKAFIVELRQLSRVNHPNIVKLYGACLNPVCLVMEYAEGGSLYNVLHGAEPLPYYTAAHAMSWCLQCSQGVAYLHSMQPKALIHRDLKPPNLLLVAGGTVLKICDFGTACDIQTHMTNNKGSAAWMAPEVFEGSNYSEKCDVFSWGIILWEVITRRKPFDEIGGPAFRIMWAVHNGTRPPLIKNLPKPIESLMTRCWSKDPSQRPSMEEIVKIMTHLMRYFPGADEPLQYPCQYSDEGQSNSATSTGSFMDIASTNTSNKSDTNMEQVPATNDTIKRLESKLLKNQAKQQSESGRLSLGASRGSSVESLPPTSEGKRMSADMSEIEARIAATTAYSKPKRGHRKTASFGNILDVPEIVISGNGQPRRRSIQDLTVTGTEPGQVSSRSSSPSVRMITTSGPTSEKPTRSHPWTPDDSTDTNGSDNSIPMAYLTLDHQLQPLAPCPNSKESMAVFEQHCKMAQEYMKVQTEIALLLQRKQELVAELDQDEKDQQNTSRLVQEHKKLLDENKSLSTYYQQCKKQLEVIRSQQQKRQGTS
Fibroblast growth factor receptor 2, sequence (P21802 whole entry): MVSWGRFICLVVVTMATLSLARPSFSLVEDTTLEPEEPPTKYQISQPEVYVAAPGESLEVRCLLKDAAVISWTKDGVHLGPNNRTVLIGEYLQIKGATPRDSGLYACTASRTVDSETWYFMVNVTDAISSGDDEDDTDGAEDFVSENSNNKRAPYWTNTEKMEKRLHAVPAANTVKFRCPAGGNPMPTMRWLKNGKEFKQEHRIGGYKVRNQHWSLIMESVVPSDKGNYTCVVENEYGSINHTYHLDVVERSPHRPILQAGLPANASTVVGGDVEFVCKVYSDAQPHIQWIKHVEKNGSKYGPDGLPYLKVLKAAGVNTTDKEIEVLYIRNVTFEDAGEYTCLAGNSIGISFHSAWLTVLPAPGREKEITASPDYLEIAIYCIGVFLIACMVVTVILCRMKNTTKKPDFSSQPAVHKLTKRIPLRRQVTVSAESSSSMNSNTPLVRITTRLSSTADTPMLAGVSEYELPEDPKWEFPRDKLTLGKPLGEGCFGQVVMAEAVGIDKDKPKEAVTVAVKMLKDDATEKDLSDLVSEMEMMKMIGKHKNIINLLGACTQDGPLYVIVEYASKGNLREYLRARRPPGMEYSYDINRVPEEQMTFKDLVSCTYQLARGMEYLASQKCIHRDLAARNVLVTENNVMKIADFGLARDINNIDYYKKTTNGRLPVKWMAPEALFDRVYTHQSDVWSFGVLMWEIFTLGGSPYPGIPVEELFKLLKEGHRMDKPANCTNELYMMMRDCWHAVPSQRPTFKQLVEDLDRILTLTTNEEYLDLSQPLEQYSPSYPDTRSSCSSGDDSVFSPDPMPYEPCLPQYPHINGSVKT
Serine/threonine-protein kinase 4, sequence (Q13043 whole entry): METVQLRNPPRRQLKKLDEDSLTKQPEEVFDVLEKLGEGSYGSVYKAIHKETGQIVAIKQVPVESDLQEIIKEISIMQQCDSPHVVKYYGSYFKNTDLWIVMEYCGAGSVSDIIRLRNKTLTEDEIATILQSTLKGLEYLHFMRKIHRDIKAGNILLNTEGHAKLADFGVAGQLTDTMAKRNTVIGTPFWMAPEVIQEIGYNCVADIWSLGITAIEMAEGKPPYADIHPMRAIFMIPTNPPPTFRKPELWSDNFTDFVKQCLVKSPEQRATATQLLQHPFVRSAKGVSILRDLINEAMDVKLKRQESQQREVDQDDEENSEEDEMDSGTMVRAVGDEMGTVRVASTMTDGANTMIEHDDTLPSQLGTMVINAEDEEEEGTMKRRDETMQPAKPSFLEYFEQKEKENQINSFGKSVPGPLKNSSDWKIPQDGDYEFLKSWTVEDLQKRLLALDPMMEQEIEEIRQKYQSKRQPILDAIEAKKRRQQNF

In the case of `COc1cc(N2CCC(N3CCN(C)CC3)CC2)ccc1Nc1ncc(Cl)c(Nc2ccccc2P(C)(C)=O)n1` [BRIGATINIB], the inhibition [1] is reported as < 90%, the inhibition [2] is reported as < 90% and the inhibition [3] is reported as < 90%. The IC50 [4] was > 1000 nM, the inhibition [5] was < 90% and the inhibition [6] was < 90%. The inhibition [7] was < 90%, the inhibition [8] was < 90% and the Cave [9] was 1870 nM. The Activity (KARPAS-299) was “Dose-Dependent Effect”, the IC50 [10] was 198 nM and the IC50 [11] was 611 nM. For the same compound, the IC50 [12] was 136 nM, the inhibition [13] was “Active” and the inhibition [14] was “inactive”. The inhibition [15] was “Active”, the IC50 [16] was 228 nM and the inhibition [17] was < 90%. The inhibition [18] was < 90%, the IC50 (Ephrin type-B receptor 1) was > 1000 nM and the inhibition (Homo sapiens) was < 90%. For the same compound, the inhibition [19] was < 90%, the IC50 [20] was 88 nM and the inhibition [21] was “Active”. The IC50 [22] was 13 nM, the inhibition [23] was < 90% and the inhibition [24] was < 90%. For the same compound, the IC50 (Angiopoietin-1 receptor) was > 1000 nM and the IC50 [25] was 24 nM.

Reference: ChEMBL document CHEMBL5696443 (Clin Cancer Res, 2016)
